According to ChEMBL document CHEMBL5528063, “Antitrypanosomal Chloronitrobenzamides” (J Med Chem, 2024):
pEC50: −log10 of the molar value. Active and inactive are the calls of the source. The calls are words filed in the database; no cut-off is given here.

Assays:
[1] = Metabolic stability in […] mouse liver microsomes assessed as half-life at 20 uM measured after 2 hrs by UPLC-MS analysis; type: ADME, Microsome
[2] = Cytotoxicity against human BJ cells assessed as inhibition of cell growth incubated for 72 hrs by CellTiter-Glo luminescence assay; type: toxicity, cell-based
[3] = system: Trypanosoma brucei brucei; test: Antitrypanosomal activity against Trypanosoma brucei brucei 427 assessed as inhibition of parasite proliferation incubated for 48 hrs by CellTiter-Glo luminescent assay; type: functional, organism-based; settings: Trypanosoma brucei, 427, 48 h
[4] = Aqueous solubility of compound in 1-propanol at pH 7.4 incubated for 18 hrs by UV spectrum analysis; type: physicochemical; settings: for solubility at 18 h: 1-propanol (aqueous, pH 7.4), pH 7.4
[5] = system: Trypanosoma brucei brucei; test: Antitrypanosomal activity against Trypanosoma brucei brucei 427 assessed as inhibition of parasite proliferation at 0.7 to 15000 nM incubated for 48 hrs by CellTiter-Glo luminescent assay; type: functional, organism-based; settings: dose 0.7-15000 nM
[6] = system: Trypanosoma brucei brucei; test: Trypanocidal activity against Trypanosoma brucei brucei 427 assessed as reduction in parasitemia at 2.2 uM incubated for 4 days by clonal dilution based CellTiter-Glo assay; type: functional, organism-based; settings: time 4.0 day

Row | Compound | pEC50 [3] | EC50 at 72 h [2] | further results
1 | COc1ccncc1C(=O)Nc1cc(-c2nc3ccccc3s2)ccc1C | < 4.92 | > 21 µM | 
2 | Cc1ccc(-c2nc3ccccc3s2)cc1NC(=O)c1cc([N+](=O)[O-])ccc1O | < 5.15 | > 14 µM | 
3 | C[S+]([O-])c1ccc(Cl)c(C(=O)Nc2cccc(-c3nc4ccccc4s3)c2)c1 (stereo not given) | < 5.10 | > 25 µM | 
4 | Cc1ccc(-c2nnn[nH]2)nc1NC(=O)c1cnccc1Cl |  | > 18 µM | Activity [5]: inactive
5 | Cc1ccc(-c2nc3ccccc3s2)cc1NC(=O)c1cnccc1C(F)(F)F | < 5.15 | > 14 µM | 
6 | O=C(Nc1cccc(-c2ncc[nH]2)c1)c1cc([N+](=O)[O-])ccc1Cl | < 5.10 | > 18 µM | 
7 | O=C(Nc1cccc(-c2nccs2)n1)c1cnccc1Cl | < 4.36 | > 18 µM | 
8 | Cc1ccc(-c2nc3ccccc3s2)cc1NC(=O)c1cc([N+](=O)[O-])ccc1C(F)(F)F | < 5.15 | > 15 µM | 
9 | O=C(Nc1cccc(-c2nccs2)c1)c1cc([N+](=O)[O-])ccc1Cl | < 5.15 | > 18 µM | 
10 | COC(=O)c1ccc(Cl)c(C(=O)Nc2cc(-c3nc4ccccc4s3)ccc2C)c1 | < 4.79 | > 28 µM | 
11 | Cc1ccc(-c2nc3ccccc3s2)cc1NC(=O)c1cc(C(N)=O)ccc1Cl | < 4.96 | > 22 µM | 
12 | O=C(Nc1cccc(-c2ncco2)c1)c1cc([N+](=O)[O-])ccc1Cl | < 5.10 | > 18 µM | 
13 | Cc1ccc(-c2nnn[nH]2)cc1NC(=O)c1cc([N+](=O)[O-])ccc1Cl | < 5.10 | > 18 µM | 
14 | O=C(NC1CCCC(c2nc3ccccc3s2)C1)c1cc([N+](=O)[O-])ccc1Cl (stereo not given) | < 5.15 | > 15 µM | 
15 | CSc1ccc(Cl)c(C(=O)Nc2cccc(-c3nc4ccccc4s3)c2)c1 | < 4.48 | > 25 µM | 
16 | O=C(Nc1cccc(-c2nc3ccccc3s2)n1)c1cc([N+](=O)[O-])ccc1Cl | < 5.15 | > 15 µM | 
17 | Cc1ccc(-c2nc3ccccc3s2)cc1NC(=O)c1cc([N+](=O)[O-])ccc1C#N | < 5.05 | > 17 µM | 
18 | O=C(Nc1cncc(-c2nc3ccccc3s2)c1)c1cc([N+](=O)[O-])ccc1Cl | < 5.10 | > 15 µM | 
19 | Cc1ccc(-c2nc3ccccc3s2)cc1NC(=O)c1cnccc1O | < 5.10 | > 14 µM | 
20 | CC(=O)Nc1ccc(Cl)c(C(=O)Nc2cc(-c3nc4ccccc4s3)ccc2C)c1 | < 5.15 | > 15 µM | 
21 | Cc1ccc(-c2nc3ccccc3s2)cc1NC(=O)c1cnccc1C#N | < 5.15 | > 13 µM | 
22 | Cc1ccc(-c2nc3ccccc3s2)cc1NC(=O)c1cc(NC(=O)OC(C)(C)C)ccc1Cl | < 5.10 | > 15 µM | 
23 | Cc1ccc(-c2nc3ccccc3s2)cc1NC(=O)c1cc(C#N)ccc1Cl | < 5.22 | > 15 µM | 
24 | N=C(N)c1ccc(OCCCCCOc2ccc(C(=N)N)cc2)cc1 |  |  | Activity [6]: Active
25 | Cc1ccc(-c2nc3ccccc3s2)cc1NC(=O)c1cc(F)ccc1Cl | < 5.10 | > 15 µM | 
26 | Cc1ccc(-c2nc3ccccc3s2)cc1NC(=O)c1cnccc1F | < 4.97 | > 18 µM | 

Continued, in another order:

Row | pEC50 [3] | Compound | EC50 at 72 h [2] | further results
27 | 6.26 | Cc1ccc(-c2nc3ncccc3o2)cc1NC(=O)c1cc([N+](=O)[O-])ccc1Cl | > 25 µM | half-life at 20 µM [1]: 1.2 min; solubility at 18 h [4]: < 1.56 µM
28 | 7.36 | Cc1ccc(-c2nc3ccccc3s2)cc1NC(=O)c1cnccc1Cl | > 25 µM | half-life at 20 µM [1]: 12 min; solubility at 18 h [4]: < 1 µM
29 | 6.66 | O=C(Nc1cc(-c2nc3ccccc3s2)ccc1Br)c1cc([N+](=O)[O-])ccc1Cl | > 20 µM | half-life at 20 µM [1]: 1.7 min; solubility at 18 h [4]: < 1.56 µM
30 | 7.41 | Cc1ccc(-c2nc3ccccc3s2)cc1NC(=O)c1cc([N+](=O)[O-])ccc1Cl | > 25 µM | half-life at 20 µM [1]: > 240 min; solubility ([4]; buffer, pH 7.4, 18 h): Insoluble(Bld)
31 | 7.05 | O=C(Nc1cccc(-c2nc3ccccc3s2)n1)c1cnccc1Cl | > 15 µM | half-life at 20 µM [1]: 2 min; solubility at 18 h [4]: < 1.56 µM
32 | < 5.30 | Cc1ccc(-c2nc3ccccc3s2)cc1NC(=O)c1cc(N)ccc1Cl | > 15 µM | 
33 | 7.00 | O=C(Nc1cccc(-c2nc3ccccc3s2)c1)c1cc([N+](=O)[O-])ccc1Cl | > 15 µM | half-life at 20 µM [1]: 11 min; solubility at 18 h [4]: < 1 µM
34 | < 5.30 | O=C(Nc1cncc(-c2nc3ccccc3s2)c1)c1cnccc1Cl | > 11 µM | 
35 | 5.34 | CS(=O)(=O)c1ccc(Cl)c(C(=O)Nc2cccc(-c3nc4ccccc4s3)c2)c1 | > 25 µM | 
36 | < 5.22 | O=C(Nc1ccc(Cl)c(-c2nc3ncccc3o2)c1)c1cc([N+](=O)[O-])ccc1Cl | > 26 µM | 
37 | 8.40 | Cc1ccc(-c2nc3ccccc3s2)cc1NC(=O)c1cc([N+](=O)[O-])ccc1F | > 17 µM | half-life at 20 µM [1]: 21 min; solubility at 18 h [4]: < 1.56 µM
38 | 5.65 | Cc1nc(-c2cccc(NC(=O)c3cc([N+](=O)[O-])ccc3Cl)c2)sc1C | > 17 µM | 
39 | < 6.00 | COc1ccc([N+](=O)[O-])cc1C(=O)Nc1cc(-c2nc3ccccc3s2)ccc1C | > 2 µM | 
40 | < 5.30 | Cc1ccc(-c2nc3ccccc3s2)cc1NC(=O)c1cc(C(=O)O)ccc1Cl | > 15 µM | 
41 | < 5.22 | Cc1ccc(-c2nc3ccccc3s2)cc1NC(=O)c1cc(C(F)(F)F)ccc1Cl | > 15 µM | 
